Laboratory results reported in ChEMBL document CHEMBL1145390, “Synthesis and preliminary biological characterization of new semisynthetic derivatives of ramoplanin” (J Med Chem, 2007).
≈ marks a conversion by molar mass, not a printed value.

Tests used:
[1] = Toxicity assessed as hemolysis in erythrocytes at 90 mg/L; assay type: cell-based, Erythrocyte; details: human; for hemolysis at 90 mg/L: erythrocytes, read-out: Activity
[2] = test system: Enterococcus faecalis; experiment: Antibacterial activity against Enterococcus faecalis after 24 hrs by broth microdilution method; assay type: functional
[3] = test system: Enterococcus faecium; experiment: Antibacterial activity against Enterococcus faecium after 24 hrs by broth microdilution method; assay type: functional
[4] = test system: Staphylococcus aureus; experiment: Antibacterial activity against Staphylococcus aureus Smith after 24 hrs by broth microdilution method; assay type: functional
[5] = test system: Escherichia coli; experiment: Antibacterial activity against Escherichia coli SKF-12140 after 24 hrs by broth microdilution method; assay type: functional
[6] = test system: Enterococcus faecalis; experiment: Antibacterial activity against vancomycin A-resistant Enterococcus faecalis after 24 hrs by broth microdilution method; assay type: functional
[7] = test system: Streptococcus pyogenes; experiment: Antibacterial activity against Streptococcus pyogenes C203 after 24 hrs by broth microdilution method; assay type: functional; details: C203, 24 h
[8] = test system: Staphylococcus aureus; experiment: Antibacterial activity against methicillin-resistant Staphylococcus aureus clinical isolate after 24 hrs by broth microdilution method; assay type: functional; details: read-out: MIC
[9] = test system: Candida albicans; experiment: Antifungal activity against Candida albicans SKF-2270 after 24 hrs by broth microdilution method; assay type: functional
[10] = test system: Staphylococcus aureus; experiment: Antibacterial activity against vancomycin-intermediate resistant Staphylococcus aureus clinical isolate after 24 hrs by broth microdilution method; assay type: functional
[11] = test system: Enterococcus faecium; experiment: Antibacterial activity against vancomycin A-resistant Enterococcus faecium clinical isolate after 24 hrs by broth microdilution method; assay type: functional
[12] = test system: Staphylococcus aureus; experiment: Antibacterial activity against methicillin-resistant and vancomycin-intermediate resistant Staphylococcus aureus clinical isolate after 24 hrs by broth microdilution method; assay type: functional
[13] = Toxicity assessed as hemolysis in erythrocytes at 180 mg/L; assay type: cell-based, Erythrocyte; details: human; for hemolysis at 180 mg/L: erythrocytes, read-out: Activity

Row | SMILES | hemolysis at 90 mg/L [1] [%] | MIC ([2]; read-out: MIC) [µg/mL] | MIC ([3]; read-out: MIC) [µg/mL] | MIC ([4]; read-out: MIC) [µg/mL] | MIC ([5]; read-out: MIC) [µg/mL] | MIC ([6]; read-out: MIC) [µg/mL] | MIC ([7]; read-out: MIC) [µg/mL] | MIC [8] [µg/mL] | MIC ([9]; read-out: MIC) [µg/mL] | MIC [10] [µg/mL] | MIC ([11]; read-out: MIC) [µg/mL] | MIC ([12]; read-out: MIC) [µg/mL] | hemolysis at 180 mg/L [13] [%] | further results
1 | CCCCCCCCCC(=O)N[C@@H](CC(N)=O)C(=O)NC[C@@H]1C(=O)N[C@H](c2ccc(O)cc2)C(=O)N[C@H](CCCN)C(=O)N[C@H](C(C)C)C(=O)N[C@@H](c2ccc(O)cc2)C(=O)N[C@H](c2ccc(O)cc2)C(=O)N[C@@H]([C@@H](C)O)C(=O)N[C@@H](Cc2ccccc2)C(=O)N[C@H](CCCN)C(=O)N[C@@H](c2ccc(O[C@H]3O[C@H](CO)[C@@H](O)[C@H](O)[C@@H]3O[C@H]3O[C@H](CO)[C@@H](O)[C@H](O)[C@@H]3O)cc2)C(=O)N[C@H]([C@@H](C)O)C(=O)N[C@@H](c2ccc(O)cc2)C(=O)NCC(=O)N[C@@H](CC(C)C)C(=O)N[C@H](C)C(=O)N[C@@H](c2ccc(O)c(Cl)c2)C(=O)O[C@@H]1C(N)=O | 0 | 0.125 (≈ 0.0484 µM) | 0.25 (≈ 0.0967 µM) | 2 (≈ 0.774 µM) | > 32 | 0.06 (≈ 0.0232 µM) | 0.25 (≈ 0.0967 µM) | 2 (≈ 0.774 µM) | > 32 | 4 (≈ 1.55 µM) | 0.06 (≈ 0.0232 µM) | 8 (≈ 3.1 µM) | 41 | –
2 | Cc1ccc(C(=O)N[C@@H](CC(N)=O)C(=O)NC[C@@H]2C(=O)N[C@H](c3ccc(O)cc3)C(=O)N[C@H](CCCN)C(=O)N[C@H](C(C)C)C(=O)N[C@@H](c3ccc(O)cc3)C(=O)N[C@H](c3ccc(O)cc3)C(=O)N[C@@H]([C@@H](C)O)C(=O)N[C@@H](Cc3ccccc3)C(=O)N[C@H](CCCN)C(=O)N[C@@H](c3ccc(O[C@H]4O[C@H](CO)[C@@H](O)[C@H](O)[C@@H]4O[C@H]4O[C@H](CO)[C@@H](O)[C@H](O)[C@@H]4O)cc3)C(=O)N[C@H]([C@@H](C)O)C(=O)N[C@@H](c3ccc(O)cc3)C(=O)NCC(=O)N[C@@H](CC(C)C)C(=O)N[C@H](C)C(=O)N[C@@H](c3ccc(O)c(Cl)c3)C(=O)O[C@@H]2C(N)=O)cc1 | 5 | 2 (≈ 0.785 µM) | 4 (≈ 1.57 µM) | 4 (≈ 1.57 µM) | > 32 | 2 (≈ 0.785 µM) | < 0.03 | 4 (≈ 1.57 µM) | > 32 | 8 (≈ 3.14 µM) | 2 (≈ 0.785 µM) | 4 (≈ 1.57 µM) | 3 | –
3 | CCCCCCCCC(=O)N[C@@H](CC(N)=O)C(=O)NC[C@@H]1C(=O)N[C@H](c2ccc(O)cc2)C(=O)N[C@H](CCCN)C(=O)N[C@H](C(C)C)C(=O)N[C@@H](c2ccc(O)cc2)C(=O)N[C@H](c2ccc(O)cc2)C(=O)N[C@@H]([C@@H](C)O)C(=O)N[C@@H](Cc2ccccc2)C(=O)N[C@H](CCCN)C(=O)N[C@@H](c2ccc(O[C@H]3O[C@H](CO)[C@@H](O)[C@H](O)[C@@H]3O[C@H]3O[C@H](CO)[C@@H](O)[C@H](O)[C@@H]3O)cc2)C(=O)N[C@H]([C@@H](C)O)C(=O)N[C@@H](c2ccc(O)cc2)C(=O)NCC(=O)N[C@@H](CC(C)C)C(=O)N[C@H](C)C(=O)N[C@@H](c2ccc(O)c(Cl)c2)C(=O)O[C@@H]1C(N)=O | 0 | 0.06 (≈ 0.0233 µM) | 0.125 (≈ 0.0486 µM) | 0.25 (≈ 0.0973 µM) | > 32 | 0.06 (≈ 0.0233 µM) | 0.125 (≈ 0.0486 µM) | 1 (≈ 0.389 µM) | > 32 | 4 (≈ 1.56 µM) | < 0.03 | 8 (≈ 3.11 µM) | 5 | –
4 | CCCCCCCC(=O)N[C@@H](CC(N)=O)C(=O)NC[C@@H]1C(=O)N[C@H](c2ccc(O)cc2)C(=O)N[C@H](CCCN)C(=O)N[C@H](C(C)C)C(=O)N[C@@H](c2ccc(O)cc2)C(=O)N[C@H](c2ccc(O)cc2)C(=O)N[C@@H]([C@@H](C)O)C(=O)N[C@@H](Cc2ccccc2)C(=O)N[C@H](CCCN)C(=O)N[C@@H](c2ccc(O[C@H]3O[C@H](CO)[C@@H](O)[C@H](O)[C@@H]3O[C@H]3O[C@H](CO)[C@@H](O)[C@H](O)[C@@H]3O)cc2)C(=O)N[C@H]([C@@H](C)O)C(=O)N[C@@H](c2ccc(O)cc2)C(=O)NCC(=O)N[C@@H](CC(C)C)C(=O)N[C@H](C)C(=O)N[C@@H](c2ccc(O)c(Cl)c2)C(=O)O[C@@H]1C(N)=O | – | – | – | – | – | – | – | 0.0005 (≈ 0.000196 µM) | – | 0.002 (≈ 0.000782 µM) | – | – | – | Activity ([1]; erythrocyte): 0%; MIC [2]: 0.125 µg/mL (≈ 0.0489 µM); MIC [3]: 0.25 µg/mL (≈ 0.0978 µM); MIC [4]: 0.25 µg/mL (≈ 0.0978 µM); MIC [5]: > 32 µg/mL; MIC [6]: 0.06 µg/mL (≈ 0.0235 µM); MIC [7]: < 0.03 µg/mL; MIC [9]: > 32 µg/mL; MIC [11]: 0.125 µg/mL (≈ 0.0489 µM); MIC [12]: 4 µg/mL (≈ 1.56 µM); Activity ([13]; erythrocyte): 16%
5 | CC(C)C[C@@H]1NC(=O)CNC(=O)[C@H](c2ccc(O)cc2)NC(=O)[C@@H]([C@@H](C)O)NC(=O)[C@H](c2ccc(O[C@H]3O[C@H](CO)[C@@H](O)[C@H](O)[C@@H]3O[C@H]3O[C@H](CO)[C@@H](O)[C@H](O)[C@@H]3O)cc2)NC(=O)[C@@H](CCCN)NC(=O)[C@H](Cc2ccccc2)NC(=O)[C@H]([C@@H](C)O)NC(=O)[C@@H](c2ccc(O)cc2)NC(=O)[C@H](c2ccc(O)cc2)NC(=O)[C@@H](C(C)C)NC(=O)[C@@H](CCCN)NC(=O)[C@@H](c2ccc(O)cc2)NC(=O)[C@@H](CNC(=O)[C@H](CC(N)=O)NC(=O)CCCc2ccccc2)[C@@H](C(N)=O)OC(=O)[C@H](c2ccc(O)c(Cl)c2)NC(=O)[C@@H](C)NC1=O | 0 | 1 (≈ 0.388 µM) | 2 (≈ 0.776 µM) | 1 (≈ 0.388 µM) | > 32 | 1 (≈ 0.388 µM) | ≤ 0.03 | 2 (≈ 0.776 µM) | > 32 | 8 (≈ 3.11 µM) | 2 (≈ 0.776 µM) | 8 (≈ 3.11 µM) | 0 | –
6 | CC(C)C[C@@H]1NC(=O)CNC(=O)[C@H](c2ccc(O)cc2)NC(=O)[C@@H]([C@@H](C)O)NC(=O)[C@H](c2ccc(O[C@H]3O[C@H](CO)[C@@H](O)[C@H](O)[C@@H]3O[C@H]3O[C@H](CO)[C@@H](O)[C@H](O)[C@@H]3O)cc2)NC(=O)[C@@H](CCCN)NC(=O)[C@H](Cc2ccccc2)NC(=O)[C@H]([C@@H](C)O)NC(=O)[C@@H](c2ccc(O)cc2)NC(=O)[C@H](c2ccc(O)cc2)NC(=O)[C@@H](C(C)C)NC(=O)[C@@H](CCCN)NC(=O)[C@@H](c2ccc(O)cc2)NC(=O)[C@@H](CNC(=O)[C@H](CC(N)=O)NC(=O)Cc2ccc(O)cc2)[C@@H](C(N)=O)OC(=O)[C@H](c2ccc(O)c(Cl)c2)NC(=O)[C@@H](C)NC1=O | 0 | > 32 | > 32 | > 32 | > 32 | – | 1 (≈ 0.39 µM) | > 32 | > 32 | > 32 | – | > 32 | 0 | –
